Assay results published in paper PMC10517971, “An inverse agonist of orphan receptor GPR61 acts by a G protein-competitive allosteric mechanism” (Nature Communications, 2023).
pIC50: −log10 of the molar value.

What was measured:
human GPR101 = biological target: T1, human GPR101 (Homo sapiens, UniProt Q96P66); assay: Functional cAMP assay (HTRF), stable CHO TREx human GPR101 cells; type: cell-based; conditions: Supplementary Table 2
T1 construct: expressed in transfected cells
Protocol: A homogeneous Time-Resolved Fluorescence (HTRF) assay (Perkin Elmer, Dynamic2 kit #) was used to assess receptor basal and inverse agonist activity at human GPR61, GPR62, and GPR101. For routine inverse agonist screening frozen CHO TREx human GPR61, GPR62 and GPR101 cells were used. Cells were thawed, resuspended in complete assay media (DMEM F-12, 10% HI FBS, 100 μg/mL Normocin, 700 μg/mL Hygromycin B and 15 μg/mL Blasticidin) containing 1ug/ml doxycycline, plated in white 384 well plates (Corning, 3570) at a density of 750 cells/well (25 μl/ well) and cultured at 37 °C in an incubator overnight. For studies assessing basal and inverse agonist activity at human GPR61 mutants, CHO-K1 cells were transiently transfected using Fugene6, plated in white 384 well plates (7500 cells/well) and grown overnight at 37 °C, as described for receptor expression studies. […] Data were analyzed using the ratio of fluorescence intensity at 620 and 665 nm for each well, extrapolated from the cAMP standard curve to express data as nM cAMP for each well. […]

Human PDE2A1 = Human PDE2A1 (Homo sapiens, UniProt O00408); assay: Phosphodiesterase Assay (SPA); type: biochemical
Human PDE2A1, sequence (O00408 1-920 isoform O00408-2): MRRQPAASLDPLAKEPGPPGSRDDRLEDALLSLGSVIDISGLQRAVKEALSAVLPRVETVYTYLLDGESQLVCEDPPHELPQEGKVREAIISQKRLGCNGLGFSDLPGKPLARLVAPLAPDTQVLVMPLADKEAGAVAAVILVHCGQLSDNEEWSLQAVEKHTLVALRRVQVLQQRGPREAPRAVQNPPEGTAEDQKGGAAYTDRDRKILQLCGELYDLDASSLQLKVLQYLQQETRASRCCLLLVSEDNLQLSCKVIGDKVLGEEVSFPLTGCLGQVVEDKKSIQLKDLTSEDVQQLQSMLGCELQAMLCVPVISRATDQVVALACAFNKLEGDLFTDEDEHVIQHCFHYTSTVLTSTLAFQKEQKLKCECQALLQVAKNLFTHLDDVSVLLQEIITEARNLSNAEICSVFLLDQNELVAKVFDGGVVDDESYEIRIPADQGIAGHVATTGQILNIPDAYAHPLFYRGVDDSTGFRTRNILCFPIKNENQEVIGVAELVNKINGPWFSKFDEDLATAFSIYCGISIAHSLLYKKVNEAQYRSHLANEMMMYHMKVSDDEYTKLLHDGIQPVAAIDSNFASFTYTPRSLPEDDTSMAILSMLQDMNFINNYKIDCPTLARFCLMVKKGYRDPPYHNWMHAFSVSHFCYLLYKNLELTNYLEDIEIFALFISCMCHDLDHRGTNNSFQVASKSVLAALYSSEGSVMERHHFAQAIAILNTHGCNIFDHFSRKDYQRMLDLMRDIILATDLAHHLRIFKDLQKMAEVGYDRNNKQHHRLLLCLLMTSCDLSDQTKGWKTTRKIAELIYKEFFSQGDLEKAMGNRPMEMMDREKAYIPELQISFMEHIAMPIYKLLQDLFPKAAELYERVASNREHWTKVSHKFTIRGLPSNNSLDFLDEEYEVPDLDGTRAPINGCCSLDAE

BRD4 = BRD4 (Homo sapiens, UniProt O60885); assay: Bromodomain-Containing Protein 4 (BRD4) fluorescence polarization Binding Assay
Protocol: 45 37 °C for 30 min (DAT) or 60 min (NET and SER T). The plate is transferred to the FLIPR Tetra®
46 instrument and the fluorescence of each well was measured (Ex 470- 495 […]).
47 The level of fluores cenc e measured dire ctly relates to the level of uptake of the dye labelled amine,
48 with a reduction in levels being related to an inhibition of the respective transporter.
49 Phosphodiesterase Assays
50 The phosphodiesteras e (P DE) assays m easure the conversion of 3’, 5 ’ -[3H ] cAMP to 5’-[3H] AMP
51 (for PDE 3A1 and 4D3) or 3’, 5’-[3H] cGMP to 5’-[3H] GMP (for 5A1) by the relevant PDE
52 enzyme subtype. Yttrium silicate (YSi) scintillation proximity (SPA) beads bind selectively to 5’-
53 [3H] AMP or 5’-[3H] GMP, with the magnitude of radioactive counts being directly related to
54 PDE enzymatic activity. The ass ay was performed in white walled op aque b ottom 384-well plates.
55 Test compound (1 µL) in dimethyl sulfoxide was added to each well. Enzyme solution was then […]
60 Waltham, MA). Followin g an additional 8 h incubation period the plates were read on a MicroBeta […]
71 temperature fluorescence polarization measurements were made using an Envision plate reader […]
76 of the product color, measured at 405 nm, is proportionate to the enzyme activity in the sample. […]
81 read at the 20 min time point. […]

T1 sequence (Q96P66 whole entry): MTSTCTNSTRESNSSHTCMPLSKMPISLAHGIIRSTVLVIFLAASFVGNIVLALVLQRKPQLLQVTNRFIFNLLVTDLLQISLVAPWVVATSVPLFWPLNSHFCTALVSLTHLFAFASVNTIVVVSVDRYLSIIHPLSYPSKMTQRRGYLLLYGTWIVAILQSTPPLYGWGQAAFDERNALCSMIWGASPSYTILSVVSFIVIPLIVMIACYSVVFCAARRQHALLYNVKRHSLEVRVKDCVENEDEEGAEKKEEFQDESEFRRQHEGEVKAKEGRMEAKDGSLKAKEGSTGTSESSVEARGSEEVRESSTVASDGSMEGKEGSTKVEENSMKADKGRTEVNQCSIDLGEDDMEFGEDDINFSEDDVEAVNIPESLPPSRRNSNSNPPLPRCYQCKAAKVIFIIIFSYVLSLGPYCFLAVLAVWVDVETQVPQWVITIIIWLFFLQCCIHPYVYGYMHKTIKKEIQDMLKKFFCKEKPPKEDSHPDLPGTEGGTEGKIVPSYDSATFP

## CCOc1cc(C)nc(N(CCOC)S(=O)(=O)c2ccc(NCc3c(F)cncc3F)nc2OC)n1 [Compound 1]
Human GPR101
  IC50: > 29.7 µM
Human PDE2A1
  pIC50: < 3.70
BRD4
  pIC50: < 4.60
